Literature values in patent US20220387439A1, “ANTI-INFLAMMATORY PHARMACEUTICAL COMPOSITION COMPRISING PROBIOTICS AND ANTIBIOTICS, AND METHOD USING SAME” (priority 2019, published 2022).

Test system: patient with otitis media
Conditions: Patient 1, otitis media for more than several years; antibiotics taken at other hospitals

## N[C@@H](C(=O)N[C@@H]1C(=O)N2C(C(=O)O)=C(Cl)CS[C@H]12)c1ccccc1 [cefaclor]
  treatment effect of antibiotics taken earlier: no treatment effect
